Data on seven compounds can be found in patent US4983603A, “Tricyclic cholinergic receptor agonists” (Societe Anonyme: SANOFI, priority 1987, dated 1991).

The target in experiment [1] is T1, M1-type muscarinic cholinergic receptor (Rattus norvegicus, UniProt P08482).
T1 sequence (P08482 1-460): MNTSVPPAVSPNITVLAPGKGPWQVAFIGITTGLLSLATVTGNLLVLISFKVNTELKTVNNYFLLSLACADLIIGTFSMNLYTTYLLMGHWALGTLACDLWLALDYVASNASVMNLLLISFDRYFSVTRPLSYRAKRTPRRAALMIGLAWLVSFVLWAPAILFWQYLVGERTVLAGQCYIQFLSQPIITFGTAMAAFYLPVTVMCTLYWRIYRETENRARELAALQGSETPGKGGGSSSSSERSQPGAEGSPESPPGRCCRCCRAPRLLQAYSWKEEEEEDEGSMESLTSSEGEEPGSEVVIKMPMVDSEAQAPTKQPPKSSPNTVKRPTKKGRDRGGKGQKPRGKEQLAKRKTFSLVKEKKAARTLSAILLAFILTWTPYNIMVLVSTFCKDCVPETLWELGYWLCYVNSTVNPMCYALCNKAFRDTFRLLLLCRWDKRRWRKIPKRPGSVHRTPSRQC
The experiment can be described thus: Test for affinity for the M1-type muscarinic cholinergic receptor (displacement of [3H]pirenzepine). Format: binding. The settings on record: for r = (M2/M1), ratio of the IC50 values (selectivity): M2 IC50 (guinea-pig ileum) / M1 IC50 (rat hippocampus); for IC50: homogenate of rat hippocampus, [3H]PZ 1 nM, 2 h at 4° C., pH 7.40. Background: Displacement assays read how much labelled ligand stays bound in the presence of the test substance.
Description: (A) Test for Affinity for the M1 -Type Muscarinic Cholinergic Receptor
The interaction of the molecules with M1 -type muscarinic receptors was studied by in vitro measurement, on a homogenate of rat hippocampus, of the displacement of tritiated pirenzepine ([^3 H]PZ) from its specific binding sites. Aliquots (10 μl) of a 5% (w/v) homogenate of rat hippocampus in an Na2 HPO4 buffer (50 mM, pH 7.40) are incubated for 2 h at 4° C. in the presence of [^3 H]PZ (76 Ci/nmol; final concentration: 1 nM) and increasing concentrations of products to be studied. The final volume is 2 ml. The reaction is stopped by centrifugation for 10 min at 50,000×g. After decantation and washing of the residues, the bound radioactivity is counted by liquid scintillation. The non-specific binding is determined in the presence of 10 μmol/l of atropine sulfate. The 50% inhibitory concentration (IC50) is determined graphically (Ref.: Watson J. D., Roeskoe W. R. and Yamamura H. I., Life Sci., 31, 2019-2029, 1982).

The target in experiment [2] is T2, M2-type muscarinic cholinergic receptor (Cavia porcellus, UniProt H0VRN8).
T2 construct: on a homogenate of smooth muscle of guinea-pig ileum; from tissue; host or cells: guinea-pig ileum smooth muscle homogenate
T2 sequence (H0VRN8 1-466): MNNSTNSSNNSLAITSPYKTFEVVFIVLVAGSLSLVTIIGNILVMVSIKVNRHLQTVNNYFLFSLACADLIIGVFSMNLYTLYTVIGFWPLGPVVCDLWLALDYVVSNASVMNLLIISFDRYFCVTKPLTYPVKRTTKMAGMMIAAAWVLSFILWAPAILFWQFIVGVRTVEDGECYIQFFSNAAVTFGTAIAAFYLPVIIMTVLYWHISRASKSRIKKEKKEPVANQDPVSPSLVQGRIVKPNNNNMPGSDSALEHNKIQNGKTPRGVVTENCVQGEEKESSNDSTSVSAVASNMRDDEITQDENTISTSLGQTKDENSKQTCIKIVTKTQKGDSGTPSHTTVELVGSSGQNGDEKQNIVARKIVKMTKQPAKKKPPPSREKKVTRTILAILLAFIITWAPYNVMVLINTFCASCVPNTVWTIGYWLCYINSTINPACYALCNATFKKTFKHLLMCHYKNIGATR
The experiment can be described thus: Test for affinity for the M2-type muscarinic cholinergic receptor (displacement of [3H]N-methylscopolamine). Format: binding. As to conditions: homogenate of smooth muscle of guinea-pig ileum, [3H]NMS 0.3 nM, 20 min at 30° C., pH 7.5. An excerpt:
The M1 -type receptors are concentrated in certain areas of the brain, such as the hippocampus, the cerebral cortex and the striatum, and also in the sympathetic ganglia. These binding sites can be selectivity labeled with [^3 H] pirenzepine ([^3 H]PZ). The M2 -type receptors predominate in the heart and ileum and can be labeled with [^3 H] N-methylscopolamine ([^3 H]NMS). To determine the selectivity of the products of the invention towards the M1 and M2 sites, we studied their interaction in vitro with [^3 H]PZ and [^3 H]NMS bound with a high affinity to membranes of rat hippocampus and membranes of smooth muscle of guinea-pig ileum, respectively.
(B) Test for Affinity for the M2 -Type Muscarinic Cholinergic Receptor
The interaction with M2 -type muscarinic receptors was studied by in vitro measurement, on a homogenate of smooth muscle of guinea-pig ileum, of the displacement of tritiated N-methylscopolamine ([^3 H]NMS) from its specific binding sites. Aliquots (50 μl) of a 0.625% (w/v) homogenate of smooth muscle of guinea-pig ileum in MEPES buffer (20 mM) containing NaCl (100 mM) and MgCl2 (10 mM) (final pH: 7.5) are incubated for 20 min at 30° C. in the presence of [^3 H]NMS ([…]; final concentration: 0.3 nM) and increasing concentrations of products to be tested. The final volume is 1 ml. The reaction is stopped by centrifugation for 5 min at 15,000×g. The non-specific binding is determined in the presence of 10 μmol/l of atropine sulfate. (Ref.: Hammer R., Berrie C. P., Birdsall N. I. M., Burgen A. S. V. and Hulme E. C., Nature, 283, 90-92, 1980; Hulme E. C., Birdsall N. I. M., Burgen A. S. V. and Mettha P., Mol. Pharmacol., 14, 737-750, 1978).
Table 2 indicates the affinities of the products of the invention for M1 and M2 receptors. The results are expressed as 50% inhibitory concentrations (IC50), i.e. the concentration (in μM) which causes a 50% displacement of the tritiated ligand bound to the membrane receptors. The IC50 for displacement of ^3 H-pirenzepine represents the affinity for the M1 receptor; the IC50 for displacement of ^3 H-NMS represents the affinity for the M2 receptor.

For experiment [3], the system named is M1 central muscarinic cholinergic receptors. Briefly: Antagonism of rotational behavior induced by intrastriatal injection of pirenzepine in mice. The settings on record: i.p., 15 minutes before pirenzepine, * p<0.05, ** p<0.01 vs control animals. The format is in vivo, mice (Swiss, CD 1, female). As to the method:
Pirenzepine (PZ) is a specific antagonist of M1 central muscarinic cholinergic receptors. The intrastriatal injection of PZ into mice induces rotational behavior. The antagonism of this behavior by the products according to the invention was studied. The products according to the invention are injected intraperitoneally (i.p.) after solubilization in distilled water or suspension in a 5% solution of gum arabic. The control animals receive an injection of the pure solvent under the same conditions. The animals used are female mice (Swiss, CD 1, Charles River, France) with a body weight of between 25 and 30 grams. Pirenzepine is dissolved in a phosphate buffer; the pH of the solution is 6. The products to be studied or their solvents are injected intraperitoneally, in a volume of 0.4 ml per 20 g of body weight, 15 minutes before a direct injection of pirenzepine at a dose of […] into the right striatum of the mouse, according to the method described by P. WORMS et al. in Eur. J. Pharmacol., 1986, 121, 395-401. The number of contralateral rotations (rotations in the opposite direction to the side injected) was counted for three 2-minute periods after the injection of pirenzepine: minutes 2 to 4, 8 to 10 and 13 to 15. Each treatment includes 1 to 3 doses and 10 animals per dose. For each treatment, the total number of rotations and the percentage antagonism compared with the control group are calculated.

The term IC50 denotes the midpoint of a concentration-inhibition curve. Take `CCN1CCCC1CNc1cc2oc3ccccc3c2nn1` (centres unmarked) [SR 45042 A]: in experiment [1], the “r = (M2/M1), ratio of the IC50 values (selectivity)” value (from here on “r = (M2/M1), ratio … (selectivity)”) was found to be 500 and the half-inhibitory concentration (IC50) worked out at 0.1 µM. Moreover, the IC50 in experiment [2] is 50 µM. Further, in experiment [3] (3 mg/kg), the “Pirenzepine antagonism (percentage antagonism compared with control group, rotations)” value was -52%.
Regarding `Cl.Cl.c1ccc2c(c1)OCc1cc(NCCN3CCOCC3)nnc1-2` [SR 96094 A, 2-(2-Morpholinoethylamino)-9,10-dihydro-9-oxa-3,4-diazaphenanthrene dihydrochloride], the “r = (M2/M1), ratio … (selectivity)” value in experiment [1] is more than 27. Moreover, the IC50 in experiment [1] is 3.6 µM; in experiment [2], more than 100 µM. The “Pirenzepine antagonism (percentage antagonism compared with control group, rotations)” value is on record as -8% in experiment [3] (3 mg/kg), -20% in experiment [3] (10 mg/kg) and -85% in experiment [3] (30 mg/kg).
As for `CCN(CC)CCCNc1cc2oc3ccccc3c2nn1` [SR 45041 A], in experiment [1], the “r = (M2/M1), ratio … (selectivity)” value came to 100 and the concentration for half-maximal inhibition (IC50) amounted to 0.1 µM. In experiment [2], this compound came in with a half-inhibitory concentration (IC50) of 10 µM. Moreover, in experiment [3] (3 mg/kg), the “Pirenzepine antagonism (percentage antagonism compared with control group, rotations)” value is -72%.
For `CCN(CC)CCNc1cc2c(nn1)-c1ccccc1SC2.Cl.Cl` [SR 96056 A, 2-(2-Diethylaminoethylamino)-9,10-dihydro-9-thia-3,4-diazaphenanthrene dihydrochloride], the “r = (M2/M1), ratio … (selectivity)” value in experiment [1] was found to be 24. Moreover, the IC50 in experiment [1] amounted to 0.15 µM; in experiment [2] it was 3.6 µM. The “Pirenzepine antagonism (percentage antagonism compared with control group, rotations)” value in experiment [3] (3 mg/kg) was -14%; in experiment [3] (10 mg/kg), -55%; in experiment [3] (30 mg/kg), -79%.
For `CCN(CC)CCNc1cc2oc3ccccc3c2nn1` [SR 45040 A], in experiment [1], the “r = (M2/M1), ratio … (selectivity)” value stood at 64 and the IC50 was 0.7 µM. In experiment [2], this compound came in with an IC50 of 45 µM. Moreover, the “Pirenzepine antagonism (percentage antagonism compared with control group, rotations)” value in experiment [3] (3 mg/kg) is -47%.
In the case of `Cl.Cl.c1ccc2c(c1)oc1cc(NCCN3CCOCC3)nnc12` [SR 44288 A, 2-(2-Morpholinoethylamino)-9-oxa-3,4-diazafluorene dihydrochloride], the “r = (M2/M1), ratio … (selectivity)” value in experiment [1] is on record as more than 33. For the same compound, the IC50 in experiment [1] is 3 µM; in experiment [2], more than 100 µM. Also, the “Pirenzepine antagonism (percentage antagonism compared with control group, rotations)” value in experiment [3] (3 mg/kg) is -32%; in experiment [3] (10 mg/kg) it was -52%; in experiment [3] (30 mg/kg), -100%.
With `Cl.Cl.c1ccc2c(c1)sc1cc(NCCN3CCOCC3)nnc12` [SR 44289 A, 2-(2-Morpholinoethylamino)-9-thia-3,4-diazafluorene dihydrochloride], the “r = (M2/M1), ratio … (selectivity)” value in experiment [1] is 28. The IC50 in experiment [1] was 3.5 µM; in experiment [2], 100 µM. In addition, the “Pirenzepine antagonism (percentage antagonism compared with control group, rotations)” value is on record as -42% in experiment [3] (3 mg/kg) and -85% in experiment [3] (10 mg/kg).
